Substitutions are numbered along the chain they refer to. Active and inactive are the calls of the source. No cut-off for these calls is given here.
Experiments:
[1] = biological target: T1, Methylated-DNA--protein-cysteine methyltransferase (Homo sapiens) (UniProt P16455)
T1 sequence (whole entry): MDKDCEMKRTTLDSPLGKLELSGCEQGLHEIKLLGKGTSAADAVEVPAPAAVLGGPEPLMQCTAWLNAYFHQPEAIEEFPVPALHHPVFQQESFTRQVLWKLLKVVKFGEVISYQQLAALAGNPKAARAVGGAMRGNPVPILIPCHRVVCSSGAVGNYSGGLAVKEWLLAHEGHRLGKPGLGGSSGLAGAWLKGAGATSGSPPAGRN
Description: Inactivation of histidine6-tagged wild type human recombinant O-6-alkylguanine-DNA-alkyltransferase expressed in Escherichia coli assessed as [3H]methylated protein formation in presence of [3H]methylated calf thymus DNA

[2] = biological target: T1, Methylated-DNA--protein-cysteine methyltransferase (Homo sapiens); remark: listed apart in the source
Description: Inactivation of histidine6-tagged wild type human recombinant O-6-alkylguanine-DNA-alkyltransferase expressed in Escherichia coli assessed as [3H]methylated protein formation in absence of [3H]methylated calf thymus DNA

HT-29 = test: Sensitization of human HT-29 cells to BCNU-induced cytotoxicity assessed as survival treated for 2 hrs before BCNU challenge measured after 16 to 18 hrs by colony forming assay; format: functional, cell-based
[3] = tested on: T2, Methylated-DNA--protein-cysteine methyltransferase (Homo sapiens), P16455 [S159A]
T2 sequence (whole entry): T1 sequence (whole entry) with S159A
Description: Inactivation of histidine6-tagged human recombinant O-6-alkylguanine-DNA-alkyltransferase S159A mutant expressed in Escherichia coli assessed as [3H]methylated protein formation in absence of [3H]methylated calf thymus DNA

[4] = tested on: T2, Methylated-DNA--protein-cysteine methyltransferase (Homo sapiens), P16455 [S159A]; remark: listed apart in the source
Description: Inactivation of histidine6-tagged human recombinant O-6-alkylguanine-DNA-alkyltransferase S159A mutant expressed in Escherichia coli assessed as [3H]methylated protein formation in presence of [3H]methylated calf thymus DNA

[5] = biological target: T1, Methylated-DNA--protein-cysteine methyltransferase (Homo sapiens); test: Inactivation of human O-6-alkylguanine-DNA-alkyltransferase in human HT-29 cells at 1 uM after 30 mins by reverse-phase HPLC in presence of [3H]methylated calf thymus DNA
[6] = biological target: T1, Methylated-DNA--protein-cysteine methyltransferase (Homo sapiens); test: Inactivation of histidine6-tagged human recombinant O-6-alkylguanine-DNA-alkyltransferase expressed in Escherichia coli assessed as [3H]methylated protein formation at 1 mM
[7] = Stability assessed as N6-[2-(hydroxymethyl)-benzyl]-2-aminoadenine formation in aqueous solution; format: physicochemical; details: buffer

Structure (SMILES)	ED50 [1] [µM]	ED50 [2] [µM]	Activity (HT-29)	ED50 [3] [µM]	ED50 [4] [µM]	inhibition [5] [%]	inhibition [6] [%]	t1/2 [7] [h]
Cc1ccccc1COc1nc(N)nc2nc[nH]c12	90	185	–	–	–	–	–	–
NCc1ccccc1COc1nc(N)nc2nc[nH]c12	45	80	–	–	–	–	–	–
NCc1ccc(COc2nc(N)nc3nc[nH]c23)cc1	0.053	0.23	Active	0.16	0.028	20	–	–
Cc1ccc(COc2nc(N)nc3nc[nH]c23)cc1	–	0.32	–	–	–	–	–	–
Nc1nc(NCc2ccccc2CO)c2[nH]cnc2n1	> 1000	> 1000	–	–	–	–	< 10	50
Cc1cccc(COc2nc(N)nc3nc[nH]c23)c1	0.16	0.25	–	–	–	–	–	–
